# Reference: patent US8716475B2, “2-aminopyrimidine modulators of the histamine H4 receptor” (Janssen Pharmaceutica NV, priority 2007, dated 2014)
# Structures can show the parent of a compound that is named as a salt.
# Molecular target: T1, human H4 receptor (Homo sapiens, UniProt Q9H3N8)
# T1 construct: expressed in transfected cells
# Test: Binding Assay on Recombinant Human Histamine H4 Receptor
# Conditions: Table 1; [3H] histamine competition binding, membranes of SK-N-MC cells transfected with human H4 receptor; average of results
# Description: Binding Assay on Recombinant Human Histamine H4 Receptor.
# Cell pellets from SK-N-MC cells stably or transiently transfected with human H4 receptor were used for the binding assays. Cell pellets were homogenized in 50 mM Tris/5 mM EDTA buffer and supernatants from an 800g spin were collected and recentrifuged at 30,000g for 30 min. Pellets were rehomogenized in 50 mM Tris/5 mM EDTA buffer. […] Compounds were tested in free base, hydrochloride salt, or trifluoroacetic acid form. Nonspecific binding was defined with 100 μM cold histamine. […] Membranes were harvested by rapid filtration using the 96 well Brandel system or a cell harvester using a Whatman GF/C filter or filter plates treated with 0.5% polyethylenimine (PEI), and washed 4 times with ice-cold 50 mM Tris/5 mM EDTA buffer. Filters were then dried, mixed with scintillant and radioactive counts were determined. […] Data marked with an asterisk (*) were obtained by the cell harvester method. Where activity is shown as greater than (>) a particular value, the value is the highest concentration tested.
# T1 sequence (Q9H3N8 whole entry): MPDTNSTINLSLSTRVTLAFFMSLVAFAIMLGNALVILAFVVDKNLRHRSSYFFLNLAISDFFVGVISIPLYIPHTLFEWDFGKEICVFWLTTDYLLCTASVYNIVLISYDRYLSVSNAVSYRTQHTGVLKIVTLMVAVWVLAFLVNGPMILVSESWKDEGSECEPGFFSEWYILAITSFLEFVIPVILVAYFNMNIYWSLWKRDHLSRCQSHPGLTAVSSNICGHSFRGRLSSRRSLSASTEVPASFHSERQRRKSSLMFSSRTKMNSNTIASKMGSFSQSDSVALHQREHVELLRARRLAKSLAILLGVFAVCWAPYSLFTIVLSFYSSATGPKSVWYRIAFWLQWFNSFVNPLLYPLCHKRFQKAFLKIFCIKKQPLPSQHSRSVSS
row,Structure (SMILES),Ki
1,"Nc1nc(C2CC2)cc(N2CC3CCCNC3C2)n1 (stereo not drawn) [Example 42, 4-Cyclopropyl-6-(cis-octahydro-pyrrolo[3,4-b]pyridin-6-yl)-pyrimidin-2-ylamine]",18 nM
2,"CN[C@@H]1CCN(c2nc(N)nc3c2CCC3)C1 [Example 75, (R)-4-(3-Methylamino-pyrrolidin-1-yl)-6,7-dihydro-5H-cyclopentapyrimidin-2-ylamine]",159 nM
3,"Nc1nc(C2CCOCC2)cc(N2CCNCC2)n1 [Example 58, 4-piperazin-1-yl-6-(tetrahydro-pyran-4-yl)-pyrimidin-2-ylamine]",41 nM
4,"CN[C@@H]1CCN(c2cc(C(C)C)nc(N)n2)C1 [Example 11, (R)-4-Isopropyl-6-(3-methylamino-pyrrolidin-1-yl)-pyrimidin-2-ylamine]",12 nM
5,"CC(C)c1cc(N2CCC[C@H](N)C2)nc(N)n1 [Example 10, (S)-4-(3-Amino-piperidin-1-yl)-6-isopropyl-pyrimidin-2-ylamine]",159 nM
6,"Nc1nc(Cc2ccccc2)cc(N2CCNCC2)n1 [Example 62, 4-Benzyl-6-piperazin-1-yl-pyrimidin-2-ylamine]",30 nM
7,"Nc1nc(C2CCC2)cc(N2CCNCC2)n1 [Example 43, 4-Cyclobutyl-6-piperazin-1-yl-pyrimidin-2-ylamine]",2 nM
8,"CC(C)c1cc(N2CC[C@@H](N)C2)nc(N)n1 [Example 12, (R)-4-(3-Amino-pyrrolidin-1-yl)-6-isopropyl-pyrimidin-2-ylamine]",18 nM
9,"Cc1cc(N2CCNCC2)nc(N)n1 [Example 21, 4-Methyl-6-piperazin-1-yl-pyrimidin-2-ylamine]",29 nM
10,"CN1CCN(c2nc(N)nc3c2CCC3)CC1 [Example 74, 4-(4-Methyl-piperazin-1-yl)-6,7-dihydro-5H-cyclopentapyrimidin-2-ylamine]",76 nM
11,"CCc1cc(N2CCN(C)CC2)nc(N)n1 [Example 34, 4-Ethyl-6-(4-methyl-piperazin-1-yl)-pyrimidin-2-ylamine]",6 nM
12,"CC(C)c1cc(N2C[C@H]3CCCN[C@H]3C2)nc(N)n1 [Example 20, (R,R)-4-Isopropyl-6-(cis-octahydro-pyrrolo[3,4-b]pyridin-6-yl)-pyrimidin-2-ylamine]",18 nM
13,"Cc1nc(N)nc(N2CCN(C)CC2)c1C [Example 26, 4,5-Dimethyl-6-(4-methyl-piperazin-1-yl)-pyrimidin-2-ylamine]",177 nM
14,"CN[C@@H]1CCN(c2cc(C3CCCCC3)nc(N)n2)C1 [Example 53, (R)-(4-Cyclohexyl-6-3-methylamino-pyrrolidin-1-yl)-pyrimidin-2-ylamine]",3 nM

# Same assay, conditions: Table 2, data marked with an asterisk (*): obtained by the cell harvester method; [3H] histamine competition binding, SK-N-MC membranes
row,Structure (SMILES),Ki
1,"CN(CCN)c1cc(C(C)(C)C)nc(N)n1 [Example 131, N^4-(2-Amino-ethyl)-6-tert-butyl-N^4-methyl-pyrimidine-2,4-diamine]",412 nM
2,"CCCCc1nc(N)nc(N2CC[C@@H](NC)C2)c1OC [Example 106, (R)-4-Butyl-5-methoxy-6-(3-methylamino-pyrrolidin-1-yl)-pyrimidin-2-ylamine]",39 nM
3,"CCCCc1nc(N)nc(N(C)CCN)c1OC [Example 109, N^4-(2-Amino-ethyl)-6-butyl-5-methoxy-N^4-methyl-pyrimidine-2,4-diamine]",517 nM
4,"Nc1nc(C2Cc3ccccc3C2)cc(N2CC3CCCNC3C2)n1 (stereo not shown) [Example 251, 4-Indan-2-yl-6-(octahydro-pyrrolo[3,4-b]pyridin-6-yl)-pyrimidin-2-ylamine]",20 nM

# Same assay, conditions: Table 2; [3H] histamine competition binding, membranes of SK-N-MC cells transfected with human H4 receptor; average of results
row,Structure (SMILES),Ki
1,"Nc1nc(Cc2ccsc2)cc(N2CCNCC2)n1 [Example 209, 4-piperazin-1-yl-6-thiophen-3-ylmethyl-pyrimidin-2-ylamine]",2 nM
2,"CC1(c2cc(N3CCNCC3)nc(N)n2)CCOCC1 [Example 153, 4-(4-Methyl-tetrahydro-pyran-4-yl)-6-piperazin-1-yl-pyrimidin-2-ylamine]",97 nM
3,"CCCCc1cc(N2CC3CCCNC3C2)nc(N)n1 (stereo not drawn) [Example 141, 4-Butyl-6-(cis-octahydro-pyrrolo[3,4-b]pyridin-6-yl)-pyrimidin-2-ylamine]",84 nM
4,"Nc1nc(C2CCOC2)cc(N2CC3CCCNC3C2)n1 (stereo not drawn) [Example 190, 4-(cis-Octahydro-pyrrolo[3,4-b]pyridin-6-yl)-6-(tetrahydro-furan-3-yl)-pyrimidin-2-ylamine]",11 nM
5,"Nc1nc2c(c(N3CC(N)C3)n1)CCCC2 [Example 253, 4-(3-Amino-azetidin-1-yl)-5,6,7,8-tetrahydro-quinazolin-2-ylamine]",> 10000 nM
6,"Nc1nc(C2CCOC2)cc(N2CCNCC2)n1 (single isomer, unassigned; (-)) [Example 193, (−)-4-piperazin-1-yl-6-(tetrahydro-furan-3-yl)-pyrimidin-2-ylamine]",31 nM
7,"CN[C@@H]1CCN(c2cc(C3CC3c3ccccc3)nc(N)n2)C1 (stereo in doubt) [Example 160, (R)-4-(3-Methylamino-pyrrolidin-1-yl)-6-(trans-2-phenyl-cyclopropyl)-pyrimidin-2-ylamine]",3 nM
8,"Nc1nc(Cc2cccs2)cc(N2CC3CCCNC3C2)n1 (stereo not drawn) [Example 217, 4-(cis-Octahydro-pyrrolo[3,4-b]pyridin-6-yl)-6-thiophen-2-ylmethyl-pyrimidin-2-ylamine]",9 nM
9,"Nc1nc(C2Cc3ccccc3C2)cc(N2CC(N)C2)n1 [Example 161, 4-(3-Amino-azetidin-1-yl)-6-indan-2-yl-pyrimidin-2-ylamine salt]",24 nM
10,"CN1CCN(c2cc(Cc3ccncc3)nc(N)n2)CC1 [Example 206, 4-(4-Methyl-piperazin-1-yl)-6-pyridin-4-ylmethyl-pyrimidin-2-ylamine]",81 nM
11,"CCCCc1nc(N)nc(N2CC[C@H](NC)C2)c1OC [Example 107, (S)-4-Butyl-5-methoxy-6-(3-methylamino-pyrrolidin-1-yl)-pyrimidin-2-ylamine]",104 nM
12,"NCCNc1cc(Cc2ccsc2)nc(N)n1 [Example 212, N^4-(2-Amino-ethyl)-6-thiophen-3-ylmethyl-pyrimidine-2,4-diamine]",12 nM
13,"CCCCc1cc(N2C[C@H]3CNC[C@H]3C2)nc(N)n1 [Example 140, Butyl-6-(cis-hexahydro-pyrrolo[3,4-c]pyrrol-2-yl)-pyrimidin-2-ylamine]",397 nM
14,"CN[C@@H]1CCN(c2nc(N)nc(C3CCCC3)c2OC)C1 [Example 187, (R)-4-Cyclopentyl-5-methoxy-6-(3-methylamino-pyrrolidin-1-yl)-pyrimidin-2-ylamine]",10 nM
15,"NCCNc1cc(Cc2cccs2)nc(N)n1 [Example 218, N^4-(2-Amino-ethyl)-6-thiophen-2-ylmethyl-pyrimidine-2,4-diamine]",20 nM
16,"COCc1cc(N2CCN(C)CC2)nc(N)n1 [Example 223, 4-Methoxymethyl-6-(4-methyl-piperazin-1-yl)-pyrimidin-2-ylamine]",15 nM
17,"CN1CCN(c2cc(C3Cc4ccccc4C3)nc(N)n2)CC1 [Example 163, 4-Indan-2-yl-6-(4-methyl-piperazin-1-yl)-pyrimidin-2-ylamine]",2 nM
18,"Nc1nc(C2CC2c2ccccc2)cc(N2CCNCC2)n1 (stereo not drawn) [Example 156, 4-(trans-2-Phenyl-cyclopropyl)-6-piperazin-1-yl-pyrimidin-2-ylamine]",12 nM
19,"Nc1nc(CCc2ccccc2)cc(N2CC[C@@H](N)C2)n1 [Example 178, (R)-4-(3-Amino-pyrrolidin-1-yl)-6-phenethyl-pyrimidin-2-ylamine]",9 nM
20,"CNCCNc1cc(C2CCOC2)nc(N)n1 (stereo not shown) [Example 198, N^4-(2-Methylamino-ethyl)-6-(tetrahydro-furan-3-yl)-pyrimidine-2,4-diamine]",2450 nM
21,"Nc1nc(C2CCCC2)cc(N2CC(N)C2)n1 [Example 85, 4-(3-Amino-azetidin-1-yl)-6-cyclopentyl-pyrimidin-2-ylamine]",6 nM
22,"CN[C@@H]1CCN(c2cc(CCc3ccccc3)nc(N)n2)C1 [Example 180, (R)-4-(3-Methylamino-pyrrolidin-1-yl)-6-phenethyl-pyrimidin-2-ylamine]",8 nM
23,"CN1CCN(c2cc(CCc3ccccc3)nc(N)n2)CC1 [Example 179, 4-(4-Methyl-piperazin-1-yl)-6-phenethyl-pyrimidin-2-ylamine]",6 nM
24,"Nc1nc(C2CCCC2)cc(N2CC3NCCOC3C2)n1 (single isomer, unassigned) [Example 88, 4-Cyclopentyl-6-(cis-hexahydro-pyrrolo[3,4-b][1,4]oxazin-6-yl)-pyrimidin-2-ylamine]",520 nM
25,"CN(CCN)c1cc(C2CCOC2)nc(N)n1 (stereo not shown) [Example 189, N^4-(2-Amino-ethyl)-N^4-methyl-6-(tetrahydro-furan-3-yl)-pyrimidine-2,4-diamine]",6 nM
26,"COCc1cc(N2C[C@H]3CCCN[C@H]3C2)nc(N)n1 [Example 226, (R,R)-4-Methoxymethyl-6-(octahydro-pyrrolo[3,4-b]pyridin-6-yl)-pyrimidin-2-ylamine]",14 nM
27,"COCc1cc(N2CCCNCC2)nc(N)n1 [Example 117, 4-[1,4]-Diazepan-1-yl-6-methoxymethyl-pyrimidin-2-ylamine]",42 nM
28,"CN1CCN(c2cc(Cc3ccc(Cl)cc3)nc(N)n2)CC1 [Example 232, 4-(4-Chloro-benzyl)-6-(4-methyl-piperazin-1-yl)-pyrimidin-2-ylamine]",8 nM
